Experimental data reported in publication PMC5933457, “Probing biological activity through structural modelling of ligand-receptor interactions of 2,4-disubstituted thiazole retinoids” (Bioorganic & Medicinal Chemistry, 2018).

Columns and labels:
[1] = tested on: SH-SY5Y human neuroblastoma cells; test: Retinoid-induced gene expression (RARα, RARβ, RARγ, CYP26A1) by real-time PCR; assay type: cell-based; conditions: for induction of RARα and RARγ expression: 10 μM retinoid, over a 12 h period, Fig. 8A; for induction of RARβ expression, rank order / induction of CYP26A1 expression, rank order: dose-response 1 nM to 1 μM, 8 h treatment, Fig. 8B; for induction of RARβ expression, rank order: all doses; for induction of CYP26A1 expression, rank order: doses <1 μM
Experimental: As an additional assay of biological activity, short-term changes in expression of four genes in SH-SY5Y cells was employed; a neuroblastoma-derived lineage that undergoes neuronal differentiation in response to retinoid treatment. The four genes assayed, RARα, RARβ, RARγ and CYP26A, have RAREs associated with their promoters and may be directly regulated by retinoids.[51], [52]
(§1) Real time PCR was carried out immediately after treatment on both cell line lysates with 0.25% trypsin–EDTA. TERA-2.cl.SP12 cells were seeded at a density of 1 × 10^6 cells per 25 cm^2 flask, 12–24 h before treatment. […] SH-SY5Y cells were seeded at a density of 1 × 10^6 cells per 25 cm^2 flask, 12–24 h before treatment. […] Commercial RNA extraction kits (Qiagen) and reverse transcription (Applied Biosystems) kits were purchased and procedures used according to the manufacturer instructions. Real time PCR was performed using the TaqMan® Universal PCR Master Mix (Life technologies) and TaqMan® gene expression system (Applied Biosystems) based on probe sets to the specific genes to be analysed. Genecodes used are as follows: RARβ (Hs00233407_m1), CYP26-A1 (Hs00175627_m1), RARα (Hs00940448_g1), RARγ (Hs01559234_m1), PAX-6 (Hs01088112_m1), NeuroD1 (Hs01922995_s1). GADPH (Hs02758991_g1) and ACTB (Hs99999903_m1) were used as internal control genes for TERA-2.cl.SP12 and SH-SY5Y, respectively.

RARβ = conditions: RARβ2 isoform; cited from earlier work
TERA2.cl.SP12 stem cells = test: Real-time PCR for neuronal markers NeuroD1 and PAX6; assay type: cell-based, human; conditions: 10 μM, Fig. 7B; for induction of PAX6 expression, rank order: up to 7 days
Experimental: Second, NeuroD1 and PAX6 are retinoid-induced transcription factors involved in regulating neuronal differentiation,[49], [50] and are expressed in neurons derived from TERA2.cl.SP12 stem cells.
as §1

SMILES	time-course of RARβ and CYP26A1 induction ([1]; 10 μM retinoid treatment)	induction of RARα and RARγ expression [1]	induction of RARβ expression, rank order [1]	induction of CYP26A1 expression, rank order [1]	RAR-type selectivity (RARβ)	NeuroD1 mRNA expression, rank order (TERA2.cl.SP12 stem cells; after 5 days)	induction of PAX6 expression, rank order (TERA2.cl.SP12 stem cells)	NeuroD1 mRNA expression, rank order (TERA2.cl.SP12 stem cells; after 7 days)
CCOCCOc1nc(-c2ccc(C(=O)O)cc2)sc1C [GZ18]	less active in comparison to either GZ25 or ATRA	lower levels of induction	GZ25 ≫ ATRA > GZ18	GZ25 > GZ18 > ATRA	RARβ2-specific retinoid	GZ25 > GZ18 > ATRA	GZ25 ≫ ATRA > GZ18	
Cc1sc(-c2ccc(C(=O)O)cc2)nc1-c1ccc2c(c1)C(C)(C)CCC2(C)C [GZ25]		lower levels of induction	GZ25 ≫ ATRA > GZ18	GZ25 > GZ18 > ATRA		GZ25 > GZ18 > ATRA	GZ25 ≫ ATRA > GZ18	ATRA > GZ25
